Results published in patent US12275733B2, “Substituted pyrido[3,4-b]indoles for the treatment of cartilage disorders” (Sanofi, priority 2016, dated 2025).

Tested on: ATDC5 cells
Test: Chondrogenesis activity assay in ATDC5 cells (collagen type II induction, immunofluorescence)
Format: cell-based, mouse
Conditions: Mus musculus; for EC50: collagen type II induction in ATDC5 cells, concentration reaching 50% of maximum induction; for Emax: maximum percent induction of collagen type II relative to internal reference compound at 10 μM, ATDC5 cells
Method in brief: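 Collagen type II was stained in fixed, permeabilized cells with an Alexa Fluor 488 secondary and measured by high-content fluorescence imaging. ATDC5 cells had 4 days at 37 °C in insulin-supplemented differentiation medium with compound, typically 40 nM–10 μM, 0.1% DMSO. DMSO wells and a 10 μM internal reference compound were used for normalization.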

SMILES | EC50 | Emax
CCOc1ccc(-c2cc(Cl)cc3c2[nH]c2c(C)nccc23)cc1 [Example 192, 6-Chloro-8-(4-ethoxy-phenyl)-1-methyl-9H-pyrido[3,4-b]indole] | 640 nM | > 80%
COc1ccc(-c2cc(Cl)cc3c2[nH]c2c(C)nccc23)c(OC)c1 [Example 193, 6-Chloro-8-(2,4-dimethoxy-phenyl)-1-methyl-9H-pyrido[3,4-b]indole] | > 10000 nM | 20 to 50%
Cc1nccc2c1[nH]c1c(-c3ccc4c(c3)OC(C)C4)cc(Cl)cc12 (stereo not shown) [Example 196, 6-Chloro-1-methyl-8-(2-methyl-2,3-dihydro-benzofuran-6-yl)-9H-pyrido[3,4-b]indole] | 800 nM | 50 to 80%
Cc1nccc2c1[nH]c1c(-c3ccc(OC4CCOC4)cc3)cc(Cl)cc12 (stereo not shown) [Example 197, 6-Chloro-1-methyl-8-[4-(tetrahydro-furan-3-yloxy)-phenyl]-9H-pyrido[3,4-b]indole] | 630 nM | > 80%
Cc1cc(-c2cc(Cl)cc3c2[nH]c2c(C)nccc23)ccc1OC1CCOC1 (stereo not shown) [Example 198, 6-Chloro-1-methyl-8-[3-methyl-4-(tetrahydrofuran-3-yloxy)-phenyl]-9H-pyrido[3,4-b]indole] | 1800 nM | 20 to 50%
Cc1nccc2c1[nH]c1c(-c3ccc(OCc4ccccn4)cc3)cc(Cl)cc12 [Example 202, 6-Chloro-1-methyl-8-[4-(pyridin-2-ylmethoxy)-phenyl]-9H-pyrido[3,4-b]indole] | 640 nM | > 80%
CCOC(=O)c1ccc2[nH]c(-c3cc(Cl)cc4c3[nH]c3c(C)nccc34)cc2c1 [Example 203, 2-(6-Chloro-1-methyl-9H-pyrido[3,4-b]indol-8-yl)-1H-indole-5-carboxylic acid ethyl ester] | > 10000 nM | < 20%
Cc1nccc2c1[nH]c1c(-c3ccc(Oc4ccccc4)cc3)cc(Cl)cc12 [Example 205, 6-Chloro-1-methyl-8-(4-phenoxy-phenyl)-9H-pyrido[3,4-b]indole] | 3300 nM | > 80%
CCn1c2c(-c3cnn(Cc4ccccc4)c3)cc(Cl)cc2c2ccnc(C)c21 [Example 207, 8-(1-Benzyl-1H-pyrazol-4-yl)-6-chloro-9-ethyl-1-methyl-9H-pyrido[3,4-b]indole] | 1600 nM | > 80%
CCn1c2c(-c3cnn(Cc4ccccc4)c3)cc(Br)cc2c2ccnc(C)c21 [Example 208, 8-(1-Benzyl-1H-pyrazol-4-yl)-6-bromo-9-ethyl-1-methyl-9H-pyrido[3,4-b]indole] | 1900 nM | > 80%
CCc1nc(C)cc2c3cc(Br)cc(-c4cnn(C)c4)c3n(CC)c12 [Example 210, 6-Bromo-1,9-diethyl-3-methyl-8-(1-methyl-1H-pyrazol-4-yl)-9H-pyrido[3,4-b]indole] | > 3300 nM | < 20%
CCc1cc2c([nH]c3c(-c4ccc(OC)cc4)cc(Br)cc32)c(C)n1 [Example 211, 6-Bromo-3-ethyl-8-(4-methoxy-phenyl)-1-methyl-9H-pyrido[3,4-b]indole] | > 3300 nM | < 20%
CCn1c2c(-c3ccnc(N4CCN(C)CC4)c3)cc(Cl)cc2c2ccnc(C)c21 [Example 219, 6-Chloro-9-ethyl-1-methyl-8-[2-(4-methyl-piperazin-1-yl)-pyridin-4-yl]-9H-pyrido[3,4-b]indole] | > 3300 nM | < 20%
CCn1c2c(-c3cccc(C(N)=O)c3)cc(Cl)cc2c2ccnc(C)c21 [Example 220, 3-(6-Chloro-9-ethyl-1-methyl-9H-pyrido[3,4-b]indol-8-yl)-benzamide] | > 10000 nM | 20 to 50%
COc1cc(-c2cc(Cl)cc3c2[nH]c2c(C)nccc23)ccc1OCc1ccccn1 [Example 221, 6-Chloro-8-[3-methoxy-4-(pyridin-2-ylmethoxy)-phenyl]-1-methyl-9H-pyrido[3,4-b]indole] | > 3300 nM | 20 to 50%
COc1cc(-c2cc(Cl)cc3c2[nH]c2c(C)nccc23)ccc1OCc1ccccc1 [Example 222, 8-(4-Benzyloxy-3-methoxy-phenyl)-6-chloro-1-methyl-9H-pyrido[3,4-b]indole] | > 10000 nM | < 20%
Cc1nccc2c1[nH]c1c(-c3ccc(OC4CCCC4)cc3)cc(Cl)cc12 [Example 225, 6-Chloro-8-(4-cyclopentyloxy-phenyl)-1-methyl-9H-pyrido[3,4-b]indole] | 1700 nM | > 80%
Cc1nccc2c1[nH]c1c(-c3ccc(OCCc4ccccc4)cc3)cc(Cl)cc12 [Example 231, 6-Chloro-1-methyl-8-(4-phenethyloxy-phenyl)-9H-pyrido[3,4-b]indole] | > 10000 nM | 20 to 50%
CCn1c2c(-c3ccn(CCn4cccn4)n3)cc(Cl)cc2c2ccnc(C)c21 [Example 233, 6-Chloro-9-ethyl-1-methyl-8-[1-(2-pyrazol-1-yl-ethyl)-1H-pyrazol-3-yl]-9H-pyrido[3,4-b]indole] | > 10000 nM | 20 to 50%
CCn1c2c(-c3cc[nH]n3)cc(Cl)cc2c2ccnc(C)c21 [Example 234, 6-Chloro-9-ethyl-1-methyl-8-(1H-pyrazol-3-yl)-9H-pyrido[3,4-b]indole] | 5800 nM | 50 to 80%
CCn1c2c(-c3ccc(C(O)c4ccccc4)cc3)cc(Cl)cc2c2ccnc(C)c21 (stereo not shown) [Example 238, [4-(6-Chloro-9-ethyl-1-methyl-9H-pyrido[3,4-b]indol-8-yl)-phenyl]-phenyl-methanol] | 1400 nM | > 80%
Cc1nccc2c1[nH]c1c(-c3ccc([S+](C)[O-])cc3)cc(Cl)cc12 (stereo not shown) [Example 243, 6-Chloro-8-(4-methanesulfinyl-phenyl)-1-methyl-9H-pyrido[3,4-b]indole] | 660 nM | > 80%
CCn1c2c(-c3ccc(Oc4ccccc4)cc3)cc(Cl)cc2c2ccnc(C)c21 [Example 246, 6-Chloro-9-ethyl-1-methyl-8-(4-phenoxy-phenyl)-9H-pyrido[3,4-b]indole] | 2900 nM | 50 to 80%
Cc1nccc2c1[nH]c1c(-c3cccc(CCO)c3)cc(Cl)cc12 [Example 248, 2-[3-(6-Chloro-1-methyl-9H-pyrido[3,4-b]indol-8-yl)-phenyl]-ethanol] | > 3300 nM | 20 to 50%
Cc1nccc2c1[nH]c1c(-c3cccc(OCCN4CCOCC4)c3)cc(Cl)cc12 [Example 249, 6-Chloro-1-methyl-8-[3-(2-morpholin-4-yl-ethoxy)-phenyl]-9H-pyrido[3,4-b]indole] | > 3300 nM | 20 to 50%
Cc1nccc2c1[nH]c1c(-c3ccc(C(F)(F)F)cc3)cc(Cl)cc12 [Example 252, 6-Chloro-1-methyl-8-(4-trifluoromethyl-phenyl)-9H-pyrido[3,4-b]indole] | 1600 nM | > 80%

The next molecules have a lower EC50 than those just listed; values first:

EC50 | SMILES | Emax
600 nM | COCCn1c2cnccc2c2cc(Cl)cc(-c3ccc(OC)cc3)c21 [Example 201, 6-Chloro-9-(2-methoxy-ethyl)-8-(4-methoxy-phenyl)-9H-pyrido[3,4-b]indole] | > 80%
570 nM | Cc1nccc2c1[nH]c1c(-c3cnn(Cc4ccccn4)c3)cc(Cl)cc12 [Example 242, 6-Chloro-1-methyl-8-(1-pyridin-2-ylmethyl-1H-pyrazol-4-yl)-9H-pyrido[3,4-b]indole] | > 80%
500 nM | Cc1nccc2c1[nH]c1c(-c3cnc(-n4cccn4)nc3)cc(Cl)cc12 [Example 237, 6-Chloro-1-methyl-8-(2-pyrazol-1-yl-pyrimidin-5-yl)-9H-pyrido[3,4-b]indole] | > 80%
490 nM | COc1ccc(-c2cc(Cl)cc3c4ccnc(C)c4n(C)c23)nc1N [Example 240, 6-(6-Chloro-1,9-dimethyl-9H-pyrido[3,4-b]indol-8-yl)-3-methoxy-pyridin-2-ylamine] | 50 to 80%
330 nM | Cc1nccc2c1[nH]c1c(-c3ccnn3C)cc(Cl)cc12 [Example 227, 6-Chloro-1-methyl-8-(2-methyl-2H-pyrazol-3-yl)-9H-pyrido[3,4-b]indole] | > 80%
330 nM | Cc1nccc2c1[nH]c1c(-c3ccc4[nH]ncc4c3)cc(Cl)cc12 [Example 232, 6-Chloro-8-(1H-indazol-5-yl)-1-methyl-9H-pyrido[3,4-b]indole] | > 80%
310 nM | Cc1nccc2c1[nH]c1c(-c3ccc(CN4CCOCC4)cc3)cc(Cl)cc12 [Example 224, 6-Chloro-1-methyl-8-(4-morpholin-4-ylmethyl-phenyl)-9H-pyrido[3,4-b]indole] | > 80%
280 nM | Cc1nccc2c1[nH]c1c(-c3ccc(OCC(O)CN4CCCCC4)cc3)cc(Cl)cc12 (stereo not shown) [Example 229, 1-[4-(6-Chloro-1-methyl-9H-pyrido[3,4-b]indol-8-yl)-phenoxy]-3-piperidin-1-yl-propan-2-ol] | 50 to 80%
250 nM | CCn1c2c(-c3cn[nH]c3)cc(Cl)cc2c2ccnc(C)c21 [Example 239, 6-Chloro-9-ethyl-1-methyl-8-(1H-pyrazol-4-yl)-9H-pyrido[3,4-b]indole] | 50 to 80%
230 nM | Cc1nccc2c1[nH]c1c(-c3ccnc(N)c3)cc(Cl)cc12 [Example 215, 4-(6-Chloro-1-methyl-9H-pyrido[3,4-b]indol-8-yl)-pyridin-2-ylamine] | > 80%
190 nM | Cc1nccc2c1[nH]c1c(-c3ccc(CC(=O)N4CCC(N5CCCC5)CC4)cc3)cc(Cl)cc12 [Example 204, 2-[4-(6-Chloro-1-methyl-9H-pyrido[3,4-b]indol-8-yl)-phenyl]-1-(4-pyrrolidin-1-yl-piperidin-1-yl)-ethanone] | 50 to 80%
190 nM | Cc1nccc2c1[nH]c1c(-c3ccc(OCc4cccc(F)n4)cc3)cc(Cl)cc12 [Example 226, 6-Chloro-8-[4-(6-fluoro-pyridin-2-ylmethoxy)-phenyl]-1-methyl-9H-pyrido[3,4-b]indole] | 50 to 80%
